Assay results published in US10597674B2, “HPPD variants and methods of use” (BASF Agricultural Solutions Seed, US LLC, priority 2015, dated 2020).

Tests used:
[1] = tested on: E. coli cells expressing an HPPD polypeptide; experiment: Brown color bioassay in liquid culture, residual brown color formation (BCF), OD440 after 96 hours; format: cell-based
Procedure, shortened: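 E. coli expressing HPPD variants were grown at 30 degrees Celsius from OD600 0.3-0.5 in LB with 5 mM HPP, with or without herbicide (e.g. Cmpd. 1, 1000 μM). After 96 hours, supernatant OD440 was measured; residual brown colour formation compares pigment with and without inhibitor.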

[2] = tested on: transgenic soybean T0 events; experiment: Greenhouse spray test of T0 soybean events, herbicide tolerance rating 0-3; format: in vivo; conditions: wild-type soybean plants, 300 g AI/ha, 5 days after spraying
Method: Tolerant green shoots were transferred to rooting media or grafted. Rooted plantlets were transferred to the greenhouse after an acclimation period. Plants containing the transgene were then sprayed with HPPD inhibitor herbicides, as for example with mesotrione at a rate of 300-600 g AI/ha, or with Cmpd. […] Five to ten days after the application, the symptoms due to the application of the herbicide were evaluated and compared to the symptoms observed on wild-type plants under the same conditions.
For example, T0 soybean plants having a “plant expression cassette”, which includes an HPPD inhibitor tolerant HPPD polypeptide of the present invention, were tested towards the tolerance of Cmpd. 1.
Prior greenhouse trials with the transgenic plants, soybean transformants were routinely analyzed for the expression and presence of the transgenes using the ELISA protein detection method (see detailed description under item D and H). Only plants recovering in the selection media and having a detectable HPPD transgene protein expression were used for the herbicide tolerance analysis. A DeVries Tracker Sprayer was calibrated prior to each spraying. The chemical formulation used for Cmpd. 1 was supplemented with ammonium sulfate and methylated rape seed oil. Spray tests were conducted with a concentration, which equals to 300 grams AI per hectare (300 g AI/ha). Tolerance was evaluated 5 days after spraying. […] A rating of “3” was assigned to plants showing good tolerance, i.e. less than 10% of the leaf area from the top three trifoliate leaves showing chlorosis or only very slight bleaching.

[3] = tested on: transgenic T1 soybean events; experiment: Field trials of T1 soybean events, leaf damage eight days after application; format: in vivo; conditions: wild-type or segregated T1 soybean plants without tolerant polypeptide; 210 g/ha isoxaflutole or 150 g/ha Cmpd. 1; eight days
Method: Soybean plants expressing an HPPD inhibitor tolerant polypeptide of the present invention alone, or along with a gene conferring tolerance to glyphosate and/or a gene conferring tolerance to glufosinate or having a “plant expression cassette”, which includes only an HPPD inhibitor tolerant polypeptide of the present invention, were tested for tolerance to different HPPD inhibitor herbicide chemical classes. The transgenic plants were routinely analyzed for the expression and presence of the transgenes using the ELISA protein detection method (see detailed description under item D and H). Only plants recovering in the selection media and having a detectable HPPD transgene protein expression were regenerated, transferred to the greenhouse and used at V2-V4 growth stage for the HPPD inhibitor herbicide tolerance analysis of the T0 soybean events in the greenhouse (Example 6). The chemical formulation with HPPD inhibitor herbicides was supplemented with ammonium sulfate and methyl ester rapeseed oil. Herbicide tolerance evaluation was taken 5-21 days after spraying. The best performing independent T0 soybean events were selfed to produce T1 soybean seeds. In the field trails, the advanced T1 soybean seeds were planted and treated with either 210 g/ha of isoxaflutole or 150 g/ha of Cmpd.
In Table 10, the frequency of the soybean events showing a good tolerance, i.e. equal or less than 15% damage of the total leaf area are summarized

[4] = tested on: transgenic soybean T0 events; experiment: Additional greenhouse trials of T0 soybean events, leaf damage score 0-100 as percentiles; format: in vivo; conditions: wild-type plants, 300 g AI/ha, five days, scale 0-100
Procedure, shortened: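 Independent T0 events (21 to 94 per construct, single cassette insertion) expressing mutant HPPD were sprayed with HPPD inhibitor herbicide in the greenhouse. Leaf damage scored 5 days after application from 0 (no damage) to 100 (complete bleaching). Scores reported as percentile distributions (25th, median, 75th) per construct.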

With CSc1c(C(F)(F)F)ccc(C(=O)Nc2nnnn2C)c1Cl [Cmpd. 1, 2-chloro-3-(methylsulfanyl)-N-(1-methyl-1H-tetrazol-5-yl)-4-(trifluoromethyl)benzamide, reference compound] the “Control BCF OD440nm” value ([1]; brown color formation in absence of Cmpd. 1, culture supernatant after 96 hours, 5 mM HPP) was 2.66, the “Residual BCF OD440nm [%]” value ([1]; brown color formation with Cmpd. 1 (1000 μM) relative to without, after 96 hours) was 15% and the “leaf damage of the top two trifoliate leaves” value [2] was “more than 95%”. The leaf damage [3] was 100% and the damage score [4] was 95-100.
